In patent publication US12617771B2, “Diphenylpyrazole compound, and preparation method therefor and application thereof” (NORTHWEST A&F UNIVERSITY, priority 2021, dated 2026):

How the values were obtained:
Format in all cases: biochemical
[1] = target: PxGSTδ1 (Plutella xylostella, UniProt D7URW9); assay: Inhibition of PxGSTδ1 recombinant protein; conditions: read-out: 100 μM Inhibition rate %
Description: (§1) Experiment: 100 μL of PBS buffer (100 mM, pH 7.2) was taken and added to a 96-well plate, 1 μg of PxGSTs recombinant protein and an appropriate concentration of the compounds PXG1-PXG29 of the present invention were added to each well, after uniformly mixing, and allowed to stand at 30° C. for 10 min. Then 100 μL of PBS buffer (100 mM, pH 7.2) containing 1 mM CDNB and 1 mM GSH was successively added to each well. Immediately after mixing, the mixture was placed in a microplate reader to measure the absorbance at a wavelength of 340 nm (A340) once every 1 min, the measurement was continued for 5 min, the light absorption values of each measuring point were recorded and the inhibition rate in vitro of the compounds PXG1-PXG29 of the present invention with different concentrations against PxGSTs recombinant protein were calculated. Each group of assays was repeated three times, and PxGSTs recombinant protein inactivated at 100° C. for 5 min was used as negative control, and GTX was used as positive control. GraphPad Prism 5 software was used for analysis and calculation of IC50. Relative inhibition was calculated using the following formula:
(§2) [formula] • wherein, A340c is the change of A340 […] the control group, an A340t is the change of A340 within 5 minutes for the experimental group.

[2] = target: PxGSTσ1 (Plutella xylostella, UniProt Q6F436); assay: Inhibition of PxGSTσ1 recombinant protein; conditions: read-out: 100 μM Inhibition rate %
Sequence of PxGSTσ1 (Q6F436 entry or part of it): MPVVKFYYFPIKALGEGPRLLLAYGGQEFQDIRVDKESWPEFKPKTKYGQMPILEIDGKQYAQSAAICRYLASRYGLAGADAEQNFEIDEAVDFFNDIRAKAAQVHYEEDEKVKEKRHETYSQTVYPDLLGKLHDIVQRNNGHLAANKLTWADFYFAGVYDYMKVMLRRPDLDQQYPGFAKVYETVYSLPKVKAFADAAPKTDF
Description: as §1, §2

[3] = target: PxGSTσ2 (Plutella xylostella, UniProt Q6F443); assay: Inhibition of PxGSTσ2 recombinant protein; conditions: read-out: 100 μM Inhibition rate %
Sequence of PxGSTσ2 (Q6F443 entry or part of it): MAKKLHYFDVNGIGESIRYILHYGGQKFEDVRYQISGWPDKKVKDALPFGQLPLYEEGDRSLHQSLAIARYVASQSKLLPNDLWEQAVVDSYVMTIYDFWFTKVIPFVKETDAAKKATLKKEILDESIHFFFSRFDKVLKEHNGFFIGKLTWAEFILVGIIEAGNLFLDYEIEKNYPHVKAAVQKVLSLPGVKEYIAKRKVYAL
Description: as §1, §2

[4] = target: PxGSTε3 (Plutella xylostella, UniProt O77409); assay: Inhibition of PxGSTε3 recombinant protein; conditions: read-out: 100 μM Inhibition rate %
Sequence of PxGSTε3 (O77409 entry or part of it): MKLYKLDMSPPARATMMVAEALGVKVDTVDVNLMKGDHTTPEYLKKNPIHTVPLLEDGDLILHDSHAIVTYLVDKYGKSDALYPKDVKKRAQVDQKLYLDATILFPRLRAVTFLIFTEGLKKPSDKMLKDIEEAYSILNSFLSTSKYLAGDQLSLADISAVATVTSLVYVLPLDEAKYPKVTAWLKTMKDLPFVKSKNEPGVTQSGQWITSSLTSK
Description: as §1, §2

[5] = target: Plutella xylostella GSTs; assay: Inhibition of total GSTs enzyme of Plutella xylostella (CDNB method)
Description: (§3) Experiment: About 50 mg of larvae/nymphs of nine major pests such as Plutella xylostella, Mythimna separata, Pyrausta nubilalis, Chilo suppressalis, Nilaparvata lugens, Spodoptera frugiperda, Helicoverpa armigera, Carposina sasakii, Spodoptera litura were taken, grounded in a mortar pre-cooled at −80° C., and then 1 mL of 100 mM sodium phosphate buffer (1 mM EDTA, pH 7.2) was added and fully homogenized. The homogenate was transferred to a 1.5 mL centrifuge tube at 4° C., and centrifuged at 14,000 g for 30 minutes, and the supernatant was transferred to a new centrifuge tube as the GSTs total enzyme. The protein concentrations of the above total enzymes were determined using the BCA method.
(§4) 100 μL of PBS buffer (100 mM, pH 7.2) containing 1 mM GSH was taken and placed in a 96-well plate, 5 μg of insect total GSTs enzymes and an appropriate concentration of compounds PXG1-PXG29 (29 compounds) of the present invention were added to each well, after uniformly mixing, and allowed to stand at 30° C. for 10 min. Then 100 μL of PBS buffer (100 mM, pH 7.2) containing 1 mM CDNB was added to each well. Immediately after mixing, the mixture was placed in a microplate reader to measure the absorbance at a wavelength of 340 nm (A 340) once every 1 min, the measurement was carried out continuously for 5 min, the light absorption values of each measuring point were recorded and the inhibition rate in vitro of the compounds with different concentrations against insects total GSTs enzymes were calculated. Each group of assays was repeated three times, and total GSTs enzymes inactivated at 100° C. for 5 min were used as negative controls, and GTX was used as positive controls. GraphPad Prism 5 software was used for analysis and calculation of IC50. Relative inhibition was calculated using the following formula:
(§5) [formula] • wherein, A340 is the change of A340 within 5 minutes for the control group, and A340t is the change of A340 within 5 minutes for the experimental group.

[6] = target: Carposina sasakii GSTs; assay: Inhibition of total GSTs enzyme of Carposina sasakii (CDNB method)
Description: as §3, §4, §5

[7] = target: Spodoptera litura GSTs; assay: Inhibition of total GSTs enzyme of Spodoptera litura (CDNB method)
Description: as §3, §4, §5

[8] = target: Mythimna separata GSTs; assay: Inhibition of total GSTs enzyme of Mythimna separata (CDNB method)
Description: as §3, §4, §5

[9] = target: Pyrausta nubilalis GSTs; assay: Inhibition of total GSTs enzyme of Pyrausta nubilalis (CDNB method)
Description: as §3, §4, §5

[10] = target: Chilo suppressalis GSTs; assay: Inhibition of total GSTs enzyme of Chilo suppressalis (CDNB method)
Description: as §3, §4, §5

[11] = target: Nilaparvata lugens GSTs; assay: Inhibition of total GSTs enzyme of Nilaparvata lugens (CDNB method)
Description: as §3, §4, §5

[12] = target: Spodoptera frugiperda GSTs; assay: Inhibition of total GSTs enzyme of Spodoptera frugiperda (CDNB method)
Description: as §3, §4, §5

[13] = target: Helicoverpa armigera GSTs; assay: Inhibition of total GSTs enzyme of Helicoverpa armigera (CDNB method)
Description: as §3, §4, §5

Sequence of PxGSTδ1 (D7URW9 entry or part of it): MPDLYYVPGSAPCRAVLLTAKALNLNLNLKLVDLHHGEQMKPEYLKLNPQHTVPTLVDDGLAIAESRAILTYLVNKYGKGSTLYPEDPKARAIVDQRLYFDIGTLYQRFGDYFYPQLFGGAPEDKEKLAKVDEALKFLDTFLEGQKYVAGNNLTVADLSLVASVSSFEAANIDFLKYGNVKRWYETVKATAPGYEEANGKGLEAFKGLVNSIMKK

Row | inhibition at 100 µM [1] [%] | inhibition at 100 µM [2] [%] | inhibition at 100 µM [3] [%] | inhibition at 100 µM [4] [%] | Compound | other results
1 | 69.5 | 37.8 | 42.4 | -3.3 | O=C(NNC(=O)[C@@H]1COc2ccccc2O1)c1cc(-c2ccccc2)nn1-c1ccccc1 [PXG8, (2S)-N′-(1,3-diphenyl-1H-pyrazol-5-yl-carbonyl)-2,3-dihydro-1,4-benzodioxin-2-yl-carbohydrazide] | –
2 | 41.7 | 25.1 | 42.4 | 17.6 | O=C(NNC(=O)c1cc(-c2ccccc2)nn1-c1ccccc1)c1ccc(=O)[nH]n1 [PXG27, N′-(1,3-diphenyl-1H-pyrazol-5-yl-carbonyl)-6-oxo-1,6-dihydropyridazin-3-yl-carbohydrazide] | –
3 | 7.82 | 44.9 | 11.7 | -2.67 | CCn1c(C)nc2cc(C(=O)NNC(=O)c3cc(-c4ccccc4)nn3-c3ccccc3)ccc21 [PXG21, N′-(1-ethyl-2-methyl-1H-1,3-benzodiazol-5-yl-carbonyl)-1,3-diphenyl-1H-pyrazol-5-yl-carbohydrazide] | –
4 | 23.1 | 14.9 | 19.7 | 28.3 | CCOC(=O)NNC(=O)c1cc(-c2ccccc2)nn1-c1ccccc1 [PXG24, N′-(ethoxycarbonyl)-1,3-diphenyl-1H-pyrazol-5-yl-carbohydrazide] | –
5 | 55.7 | 35.1 | 20.1 | 5.93 | O=C(NNC(=O)c1cc(-c2ccc(Cl)cc2)nn1-c1ccccc1)c1cccnc1 [PXG7, N′-[3-(4-chlorophenyl)-1-phenyl-1H-pyrazol-5-yl-carbonyl]pyridin-3-yl-carbohydrazide] | –
6 | 23.8 | -1.47 | 15.3 | 2.07 | O=C(NNC(=O)c1cc(-c2ccccc2)nn1-c1ccccc1)c1cccnc1O [PXG25, N′-(1,3-diphenyl-1H-pyrazol-5-yl-carbonyl)-2-hydroxypyridin-3-yl-carbohydrazide] | –
7 | 23 | 71.8 | 29.6 | -15.7 | O=C(NNC(=O)c1cc(-c2ccc(Cl)cc2)nn1-c1ccccc1)c1ccccn1 [PXG20, N′-[3-(4-chlorophenyl)-1-phenyl-1H-pyrazol-5-yl-carbonyl]pyridin-2-yl-carbohydrazide] | –

More lines, now with the values behind:

Row | Compound | inhibition at 100 µM [1] [%] | inhibition at 100 µM [2] [%] | inhibition at 100 µM [3] [%] | inhibition at 100 µM [4] [%] | other results
8 | CCC1(C)NC(=O)N(NC(=O)c2cc(-c3ccccc3)nn2-c2ccccc2)C1=O (centres unmarked) [PXG13, N-(4-ethyl-4-methyl-2,5-dioxaimidazolin-1-yl)-1,3-diphenyl-1H-pyrazol-5-yl-carboxamide] | 14.1 | 34.2 | 22.8 | 18.4 | –
9 | COc1cc(C(=O)NNC(=O)c2cc(-c3ccccc3)nn2-c2ccccc2)cc(OC)c1OC [PXG4, N′-(1,3-diphenyl-1H-pyrazol-5-yl-carbonyl)-3,4,5-trimethoxybenzohydrazine] | 18.4 | 43.6 | 21.6 | 8.88 | IC50 [5]: > 100 µM; 100 μM Inhibition rate % [5]: −10.64%; IC50 [6]: > 100 µM; 100 μM Inhibition rate % [6]: 2.34%; IC50 [7]: > 100 µM; 100 μM Inhibition rate % [7]: −17.52%; IC50 [8]: > 100 µM; 100 μM Inhibition rate % [8]: 0.00%; IC50 [9]: > 100 µM; 100 μM Inhibition rate % [9]: −7.23%; IC50 [10]: > 100 µM; 100 μM Inhibition rate % [10]: −10.90%; IC50 [11]: > 100 µM; 100 μM Inhibition rate % [11]: −5.99%; IC50 [12]: > 100 µM; 100 μM Inhibition rate % [12]: −7.57%; IC50 [13]: > 100 µM; 100 μM Inhibition rate % [13]: 4.07%
10 | CC1CCC2(CC1)NC(=O)N(NC(=O)c1cc(-c3ccccc3)nn1-c1ccccc1)C2=O (centres unmarked) [PXG16, N-{8-methyl-2,4-dioxo-1,3-diazaspiro[4.5]dec-3-yl}-1,3-diphenyl-1H-pyrazol-5-yl-carboxamide] | 5.35 | 70.5 | 39.3 | 4.12 | IC50 [5]: > 100 µM; 100 μM Inhibition rate % [5]: 8.64%; IC50 [6]: > 100 µM; 100 μM Inhibition rate % [6]: 6.98%; IC50 [7]: > 100 µM; 100 μM Inhibition rate % [7]: −0.15%; IC50 [8]: > 100 µM; 100 μM Inhibition rate % [8]: 10.50%; IC50 [9]: > 100 µM; 100 μM Inhibition rate % [9]: 0.41%; IC50 [10]: > 100 µM; 100 μM Inhibition rate % [10]: 10.53%; IC50 [11]: > 100 µM; 100 μM Inhibition rate % [11]: −1.00%; IC50 [12]: > 100 µM; 100 μM Inhibition rate % [12]: −1.72%; IC50 [13]: > 100 µM; 100 μM Inhibition rate % [13]: 2.28%
11 | COc1ccc(C2(C)NC(=O)N(NC(=O)c3cc(-c4ccccc4)nn3-c3ccccc3)C2=O)cc1 (centres unmarked) [PXG14, N-[4-(4-methoxyphenyl)-4-methyl-2,5-dioxaimidazolin-1-yl]-1,3-diphenyl-1H-pyrazol-5-yl-carboxamide] | 14.9 | 52.2 | 36.4 | 15.3 | –
12 | CC1(c2ccccc2)NC(=O)N(NC(=O)c2cc(-c3ccccc3)nn2-c2ccccc2)C1=O (centres unmarked) [PXG12, N-(4-methyl-2,5-dioxo-4-phenylimidazolin-1-yl)-1,3-diphenyl-1H-pyrazol-5-yl-carboxamide] | 40.2 | 48.3 | 33.6 | 10.9 | IC50 [5]: > 100 µM; 100 μM Inhibition rate % [5]: 15.08%; IC50 [6]: > 100 µM; 100 μM Inhibition rate % [6]: 17.94%; IC50 [7]: > 100 µM; 100 μM Inhibition rate % [7]: 4.60%; IC50 [8]: > 100 µM; 100 μM Inhibition rate % [8]: 19.42%; IC50 [9]: > 100 µM; 100 μM Inhibition rate % [9]: 19.48%; IC50 [10]: > 100 µM; 100 μM Inhibition rate % [10]: 29.54%; IC50 [11]: > 100 µM; 100 μM Inhibition rate % [11]: −3.30%; IC50 [12]: > 100 µM; 100 μM Inhibition rate % [12]: 12.52%; IC50 [13]: > 100 µM; 100 μM Inhibition rate % [13]: −5.00%
13 | O=C(NNC(=O)C1CCCC1)c1cc(-c2ccccc2)nn1-c1ccccc1 [PXG28, N′-(1,3-diphenyl-1H-pyrazol-5-yl-carbonyl) cyclopentyl carbohydrazide] | 70.9 | 19.5 | 23.4 | 0.96 | –
14 | COc1cccc(C2(C)NC(=O)N(NC(=O)c3cc(-c4ccccc4)nn3-c3ccccc3)C2=O)c1 (centres unmarked) [PXG17, N-[4-(3-methoxyphenyl)-4-methyl-2,5-dioxaimidazolin-1-yl]-1,3-diphenyl-1H-pyrazol-5-yl-carboxamide] | 2.22 | 48.9 | 43.9 | 4.43 | –
